Read-outs that look alike come from different tables or passages of the source.
Tests used:
J774-Dual cytotoxicity = type: cell-based, mouse; settings: mouse, J774-Dual cells, read-out: J774 cytotox CC50
In short: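 CC50 derived from 8-point concentration series in mouse J774-Dual reporter cells, with viability read by CellTiter-Glo in the same plate. Run in parallel with EC50 and ISRE:NFκB ratio determination for cross-species confirmation.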

[1] = tested on: NF-κB-SEAP reporter in J774-Dual cells; assay: J774-Dual NF-κB-SEAP reporter assay; type: cell-based, mouse; settings: read-out: J774 NFkB EC50
Protocol: First, optimal assay conditions and assay quality in 384-well format were determined. As mentioned, the mouse macrophage J774 cell line (J774-Dual, InvivoGen) stably transfected with the same inducible reporters described above (e.g., IRF-Lucia luciferase and NF-κB-SEAP) was used. The responsiveness of the J774-Dual cell line was investigated in an array of assay conditions to obtain sensitive and reproducible results for the activation of the IRF and NF-κB reporters. An optimal plating density and conditions for these cells was established for these cells in a 384-well format. Assay work-flow is similar to that discussed above for the THP1-Dual assay without a need for cell differentiation. Thus, cells are seeded directly in growth medium and incubated at 37° C. in a 5% C02 incubator for 24 hours prior to the programmed treatments being added as described herein.
The primary high throughput screen used the HTS platform of human THP1 monocyte cells containing the IRF-Lucia luciferase and NFκB-SEAP (secreted embryonic alkaline phosphatase) dual reporter (THP1-Dual, Invivogen), enabling the simultaneous study of the IRF and NFκB signaling pathways respectively. As discussed, the Lucia luciferase reporter gene is under the control of an ISG54 (interferon-stimulated gene) minimal promoter in conjunction with five interferon-stimulated response elements (ISRE). The SEAP gene is driven by an IFNβ minimal promoter fused to five copies of the NFκB consensus transcriptional response element and three copies of the c-Rel binding site. Both IRF-Lucia luciferase and NFκB-SEAP reporter proteins are secreted and readily measurable in the cell culture supernatant when using QUANTI-Luc™ and QUANTI-Blue™ detection reagents, respectively. Identified “hits” were confirmed in a secondary screen with an 8-point dose response curve. Hits were further screened for activity in the mouse using the mouse J774 macrophage-like cell line containing the identical reporter constructs (J774-Dual, Invivogen).
The OTRADI Small Molecule Library of approximately 246,000 diverse compounds (see below for description) was screened using the THP1-Dual based HTS platform described above. All transfer steps in the screen are fully automated, thus reducing variability. Primary screening included a single data point or dose for each molecule. After data normalization was applied for each assay run, “hit” selection was performed on the plates that pass the quality control (QC) criterion. Hits were defined as samples having values above the activity cutoff determined based on noise level of the assay to reduce false positive rates. In the pilot study discussed above this activity value was >3σ above the ISRE mean with the added criteria of NFκB activation being lower than […] from the mean to identify IRF selective compounds. The ratio of ISRE:NFκB activity was also calculated as a selectivity index for prioritizing hit selection. Primary hits underwent secondary screening to determine the 50% effective concentration (EC50) and 50% cytotoxic concentration (CC50) of these agents using an 8-point dose-response curve in the human THP1-Dual cells. Cytotoxicity was measured in the plate using Cell Titer Glo (Promega). Identified candidate compounds were further screened (orthogonal screen) for cross species activity in the validated mouse J774-Dual assay using an 8-point dose-response format to determine EC50 and CC50 values as well as ISRE:NFκB ratios. A general process flow for the experimental design laid out above is depicted at FIG. 12.

[2] = Mus musculus, J774, Mouse Reporter Cell Line, 8-point dose response
[3] = Mus musculus, J774, Mouse Reporter Cell Line J774

Row | Structure (SMILES) | CC50 (J774-Dual cytotoxicity; Mouse Reporter Cell Line) [µM] | CC50 (J774-Dual cytotoxicity; Mouse Reporter Cell Line J774) [µM] | other results
1 | O=C(Nc1ccc(N2CCN(C(=O)c3cccs3)CC2)cc1)c1ccc(Cl)c2ccccc12 [NA13] | > 25 | – | EC50 [1, 2]: ~2.86 µM
2 | CCOc1cccc(COc2ccc(C(=O)Nc3ccc(N4CCN(C(=O)c5cccs5)CC4)cc3)cc2)c1 [NA42, 4-((3-ethoxybenzyl)oxy)-N-(4-(4-(thiophene-2-carbonyl)piperazin-1-yl)phenyl)benzamide] | 37.2 | – | EC50 [1, 2]: 5.36 µM
3 | O=C(Nc1ccc(N2CCN(C(=O)c3ccsc3)CC2)cc1)c1ccc(OCc2ccccc2)nc1 [NA-1] | 13.7 | – | EC50 [1, 2]: ~3.19 µM
4 | O=C(Nc1ccc(N2CCN(C(=O)c3cccs3)CC2)cc1)c1ccc(Br)cc1 [NA-14] | > 25 | – | –
5 | Cc1c(Br)ccc(C(=O)Nc2ccc(N3CCN(C(=O)c4cccs4)CC3)cc2)c1C [NA-16] | > 25 | – | EC50 [1, 2]: 12.9 µM
6 | O=C(Nc1ccc(N2CCN(C(=O)c3cccs3)CC2)cc1)c1sc2cc(Cl)ccc2c1Cl [NA-20] | 43.6 | – | EC50 [1, 2]: ~4.75 µM
7 | O=C(Nc1ccc(N2CCN(C(=O)c3cccs3)CC2)cc1)c1cccc2c(Br)cccc12 [NA-21, 5-bromo-N-{4-[4-(2-thienylcarbonyl)-1-piperazinyl]phenyl}-1-naphthamide] | 63.8 | – | EC50 [1, 2]: 1.05 µM
8 | O=C(Nc1ccc(N2CCN(C(=O)c3cccs3)CC2)cc1)c1ccc(OCc2ccc(F)c(F)c2F)cc1 [NA-23] | 22.1 | – | EC50 [1, 2]: ~2.53 µM
9 | COc1cccc(COc2ccc(C(=O)Nc3ccc(N4CCN(C(=O)c5cccs5)CC4)cc3)cc2)c1 [NA-24, 4-((3-methoxybenzyl)oxy)-N-(4-(4-(thiophene-2-carbonyl)piperazin-1-yl)phenyl)benzamide] | 36.2 | – | –
10 | Cc1ccc(COc2ccc(C(=O)Nc3ccc(N4CCN(C(=O)c5cccs5)CC4)cc3)cc2)cc1 [NA-25] | > 25 | – | EC50 [1, 2]: 8.15 µM
11 | CCOc1ccc(C(=O)Nc2ccc(N3CCN(C(=O)c4cccs4)CC3)cc2)cc1Br [NA-30] | 40.7 | – | –
12 | O=C(Nc1ccc(N2CCN(C(=O)c3cccs3)CC2)cc1)c1ccc(-c2cc3ccccc3oc2=O)cc1 [NA-32] | 67.2 | – | –
13 | O=C(Nc1ccc(N2CCN(C(=O)c3cccs3)CC2)cc1)c1ccc(OCc2cccc(Cl)c2)cc1 [NA-33] | 25.5 | – | EC50 [1, 2]: 3.81 µM
14 | O=C(Nc1ccc(N2CCN(C(=O)c3cccs3)CC2)cc1)c1ccc(-c2ccncc2)cc1 [NA-38] | > 25 | – | –
15 | O=C(Nc1ccc(N2CCN(C(=O)c3cccs3)CC2)cc1)c1ccc(-c2ccccc2)cn1 [NA-39] | > 25 | – | –
16 | O=C(Nc1ccc(N2CCN(C(=O)c3cccs3)CC2)cc1)c1ccc(-c2ccccc2)nc1 [NA-41] | > 25 | – | –
17 | COc1ccc(C(=O)Nc2ccc(OCc3ccccc3)cc2)cc1[N+](=O)[O-] [NA-44] | > 25 | – | EC50 [1, 2]: 7.65 µM
18 | O=C(Nc1ccc(N2CCN(C(=O)c3cccs3)CC2)cc1)c1ccc(OCc2ccccc2)nc1 [NA-59] | 36.1 | – | EC50 [1, 2]: 4.37 µM
19 | Cc1ccc(NC(=O)c2cc(NC(=O)c3ccccc3)ccc2N2CCOCC2)cc1Cl [NB-1] | – | > 111 | EC50 [1, 3]: 19.9 µM

Row | Structure (SMILES) | CC50 (J774-Dual cytotoxicity; Mouse Reporter Cell Line) [µM] | CC50 (J774-Dual cytotoxicity; Mouse Reporter Cell Line J774) [µM] | other results
20 | Cc1ccc(NC(=O)c2cc(NC(=O)Cc3ccccc3)ccc2N2CCOCC2)cc1Cl [NB-3] | – | > 25 | –
21 | Cc1ccc(NC(=O)c2cc(NC(=O)c3cccs3)ccc2N2CCOCC2)cc1Cl [NB-8] | – | > 25 | –
22 | Cc1ccc(NC(=O)c2cc(NC(=O)c3cccs3)ccc2N2CCOCC2)cc1 [NB-17] | – | > 25 | EC50 [1, 3]: 8.79 µM
23 | O=C(Nc1ccc(N2CCOCC2)c(C(=O)Nc2ccc(OCc3ccccc3)cc2)c1)c1cccs1 [NB-18] | – | > 25 | –
24 | Cc1ccc(NC(=O)c2cc(NC(=O)c3cccs3)ccc2N2CCOCC2)cc1Br [NB-23] | – | 36.9 | EC50 [1, 3]: 9.53 µM
25 | Cc1cc(NC(=O)c2sc3cc(Cl)ccc3c2Cl)ccc1NC(=O)c1ccco1 [NC-2] | > 25 | – | –
26 | COc1ccc(C(=O)Nc2cc(-c3nc4cc(C)c(C)cc4o3)ccc2C)cc1[N+](=O)[O-] [ND13, N-(5-(5,6-dimethylbenzo[d]oxazol-2-yl)-2-methylphenyl)-4-methoxy-3-nitrobenzamide] | – | 4.32 | EC50 [1, 3]: 1.32 µM
27 | COc1ccc(C(=O)Nc2cc(-c3nc4ccccc4s3)ccc2C)cc1[N+](=O)[O-] [ND52, N-[5-(1,3-benzothiazol-2-yl)-2-methylphenyl]-4-methoxy-3-nitrobenzamide] | – | – | EC50 [1, 3]: 7.53 µM
28 | COc1ccc(C(=O)Nc2nc(-c3cc4ccccc4oc3=O)cs2)cc1 [ND-1] | – | > 25 | EC50 [1, 3]: 8.75 µM
29 | COc1ccc(C(=O)Nc2cc(-c3nc4cc(C(C)C)ccc4o3)ccc2C)cc1[N+](=O)[O-] [ND-2] | – | 65.8 | EC50 [1, 3]: 11.4 µM
30 | CC(C)CC(=O)Nc1ccc2oc(-c3cccc(I)c3)nc2c1 [ND-5] | – | > 25 | –
31 | O=C(Cc1ccc(Cl)cc1)Nc1cccc(-c2nnc(-c3ccco3)o2)c1 [ND-7] | – | > 25 | EC50 [1, 3]: 30.6 µM
32 | COc1ccc(-c2nc3cc(C(C)C)ccc3o2)cc1NC(=O)c1ccc(C)c([N+](=O)[O-])c1 [ND-16] | – | > 25 | EC50 [1, 3]: 6.75 µM
33 | COc1ccc(C(=O)Nc2cc(-c3nc4ccccc4s3)ccc2C)cc1[N+](=O)[O-] [ND-38] | – | – | EC50 ([1]; Mouse Reporter Cell Line J774): 12 µM
34 | COc1ccc(C(=O)Nc2cccc(-c3nc4ncccc4o3)c2)cc1Br [ND-47] | – | > 25 | EC50 [1, 3]: 9.71 µM
35 | Cc1ccc(-c2nc3ccccc3s2)cc1NC(=O)c1cccc(Cl)c1 [ND-80] | – | > 25 | –
36 | ClCCCOc1ccc(-c2nc3cc(OCCCN4CCCC4)ccc3o2)cc1 [ND-94] | – | > 25 | –
37 | COCOc1ccc2oc(-c3ccc(C)c(NC(=O)c4ccc(OC)c([N+](=O)[O-])c4)c3)nc2c1 [ND-95, 4-methoxy-N-(5-(5-(methoxymethoxy)benzo[d]oxazol-2-yl)-2-methylphenyl)-3-nitrobenzamide] | – | > 25 | EC50 [1, 3]: 3.01 µM
38 | COCOc1ccc2oc(-c3ccc(C)c([N+](=O)[O-])c3)nc2c1 [ND-96] | – | > 25 | –

— patent US20220395500A1, “SMALL MOLECULE ACTIVATORS OF INTERFERON REGULATORY FACTOR 3 AND METHODS OF USE THEREOF” (Neuralexo, Inc., priority 2020, published 2022)
